Here are results for 24 molecules from patent US12390441B2, “Immunomodulating o-het/aryl azalides” (Zoetis Services LLC, priority 2020, dated 2025).

Marks after values point to notes of the source that are not given here.

The test system of the first experiment is BRD pathogens, M. haemolytica and P. multocida. Description: In-vitro MIC model, BRD pathogen screening panel. Type of experiment: cell-based, Mannheimia haemolytica; Pasteurella multocida. Particulars: Table F, Formula (1-A1a) compounds.
For `CCCNC[C@]1(O)[C@H](C)O[C@@H](O[C@H]2[C@H](C)[C@@H](O[C@@H]3O[C@H](C)C[C@H](N(C)C(=O)N(C)c4ccccc4)[C@H]3Oc3ccc(C#N)cc3)[C@](C)(O)C[C@@H](C)CN[C@H](C)[C@@H](O)[C@](C)(O)[C@@H](CC)OC(=O)[C@@H]2C)C[C@@]1(C)OC` [Example F-21], the “MIC for at least one BRD strain (asterisk on Ex#)” value is recorded as “F-21* (MIC ≤ 64 μg/mL for at least one BRD strain)”.

Still in this experiment, the particulars now being: at least one BRD strain.
Turning to `CCCNC[C@]1(O)[C@H](C)O[C@@H](O[C@H]2[C@H](C)[C@@H](O[C@@H]3O[C@H](C)C[C@H](NC)[C@H]3Oc3ccc([N+](=O)[O-])cc3)[C@](C)(O)C[C@@H](C)CN[C@H](C)[C@@H](O)[C@](C)(O)[C@@H](CC)OC(=O)[C@@H]2C)C[C@@]1(C)OC` [Example E-35], the “MIC flag at the example number (Table E)” value is on record as “E-35* (MIC ≤ 64 μg/mL for at least one BRD strain)”.

With `CC[C@H]1OC(=O)[C@H](C)[C@@H](O[C@H]2C[C@@](C)(OC)[C@@H](O)[C@H](C)O2)[C@H](C)[C@@H](O[C@@H]2O[C@H](C)C[C@H](N(C)C)[C@H]2Oc2ccccc2OC)[C@](C)(O)C[C@@H](C)CN(C)[C@H](C)[C@@H](O)[C@]1(C)O` [Example A-46], the “MIC flag at the example number (Table A)” value was “A-46* (MIC ≤ 64 μg/mL for at least one BRD strain)”.

On to `CCCNC[C@]1(O)[C@H](C)O[C@@H](O[C@H]2[C@H](C)[C@@H](O[C@@H]3O[C@H](C)C[C@H](NC)[C@H]3Oc3cc(F)cc(F)c3)[C@](C)(O)C[C@@H](C)CN[C@H](C)[C@@H](O)[C@](C)(O)[C@@H](CC)OC(=O)[C@@H]2C)C[C@@]1(C)OC` [Example E-16], for which the “MIC flag at the example number (Table E)” value was “E-16* (MIC ≤ 64 μg/mL for at least one BRD strain)”.

Regarding `CCCNC[C@]1(O)[C@H](C)O[C@@H](O[C@H]2[C@H](C)[C@@H](O[C@@H]3O[C@H](C)C[C@H](N(C)C)[C@H]3Oc3ccc4ccncc4c3)[C@](C)(O)C[C@@H](C)CN[C@H](C)[C@@H](O)[C@](C)(O)[C@@H](CC)OC(=O)[C@@H]2C)C[C@@]1(C)OC` [Example E-85], the “MIC flag at the example number (Table E)” value is recorded as “E-85* (MIC ≤ 64 μg/mL for at least one BRD strain)”.

As to `CCCN(C[C@]1(O)[C@H](C)O[C@@H](O[C@H]2[C@H](C)[C@@H](O[C@@H]3O[C@H](C)C[C@H](NC)[C@H]3Oc3ncccn3)[C@](C)(O)C[C@@H](C)CN[C@H](C)[C@@H](O)[C@](C)(O)[C@@H](CC)OC(=O)[C@@H]2C)C[C@@]1(C)OC)c1ncccn1` [Example E-118], the “MIC flag at the example number (Table E)” value was “E-118* (MIC ≤ 64 μg/mL for at least one BRD strain)”.

Turning to `CC[C@H]1OC(=O)[C@H](C)[C@@H](O[C@H]2C[C@@](C)(OC)[C@@H](O)[C@H](C)O2)[C@H](C)[C@@H](O[C@@H]2O[C@H](C)C[C@H](N(C)C)[C@H]2Oc2cccc(OC)c2)[C@](C)(O)C[C@@H](C)CN(C)[C@H](C)[C@@H](O)[C@]1(C)O` [Example A-20], the “MIC flag at the example number (Table A)” value was “A-20* (MIC ≤ 64 μg/mL for at least one BRD strain)”.

Consider `CC[C@H]1OC(=O)[C@H](C)[C@@H](O[C@H]2C[C@@](C)(OC)[C@@H](O)[C@H](C)O2)[C@H](C)[C@@H](O[C@@H]2O[C@H](C)C[C@H](N(C)C)[C@H]2Oc2ccc(OC)nc2OC)[C@](C)(O)C[C@@H](C)CN(C)[C@H](C)[C@@H](O)[C@]1(C)O` [Example A-43], for which the “MIC flag at the example number (Table A)” value was “A-43* (MIC ≤ 64 μg/mL for at least one BRD strain)”.

Consider `CC[C@H]1OC(=O)[C@H](C)[C@@H](O[C@H]2C[C@@](C)(OC)[C@@H](O)[C@H](C)O2)[C@H](C)[C@@H](O[C@@H]2O[C@H](C)C[C@H](NC)[C@H]2Oc2ccc(OC)nc2OC)[C@](C)(O)C[C@@H](C)CN(C)[C@H](C)[C@@H](O)[C@]1(C)O` [Example A-42], for which the “MIC flag at the example number (Table A)” value is “A-42* (MIC ≤ 64 μg/mL for at least one BRD strain)”.

In the case of `CCCNC[C@]1(O)[C@H](C)O[C@@H](O[C@H]2[C@H](C)[C@@H](O[C@@H]3O[C@H](C)C[C@H](N(C)C)[C@H]3Oc3cncc(C(F)(F)F)c3)[C@](C)(O)C[C@@H](C)CN[C@H](C)[C@@H](O)[C@](C)(O)[C@@H](CC)OC(=O)[C@@H]2C)C[C@@]1(C)OC` [Example E-70], the “MIC flag at the example number (Table E)” value is “E-70* (MIC ≤ 64 μg/mL for at least one BRD strain)”.

Take `CCCNC[C@]1(O)[C@H](C)O[C@@H](O[C@H]2[C@H](C)[C@@H](O[C@@H]3O[C@H](C)C[C@H](NC)[C@H]3Oc3ccc(C(F)(F)F)cc3)[C@](C)(O)C[C@@H](C)CN[C@H](C)[C@@H](O)[C@](C)(O)[C@@H](CC)OC(=O)[C@@H]2C)C[C@@]1(C)OC` [Example E-104]: the “MIC flag at the example number (Table E)” value is on record as “E-104* (MIC ≤ 64 μg/mL for at least one BRD strain)”.

On to `CCCNC[C@]1(O)[C@H](C)O[C@@H](O[C@H]2[C@H](C)[C@@H](O[C@@H]3O[C@H](C)C[C@H](NC)[C@H]3Oc3ncccn3)[C@](C)(O)C[C@@H](C)CN[C@H](C)[C@@H](O)[C@](C)(O)[C@@H](CC)OC(=O)[C@@H]2C)C[C@@]1(C)OC` [Example E-33], for which the “MIC flag at the example number (Table E)” value is recorded as “E-33* (MIC ≤ 64 μg/mL for at least one BRD strain)”.

Turning to `CCCNC[C@]1(O)[C@H](C)O[C@@H](O[C@H]2[C@H](C)[C@@H](O[C@@H]3O[C@H](C)C[C@H](NC)[C@H]3Oc3cc(F)ccc3OC)[C@](C)(O)C[C@@H](C)CN[C@H](C)[C@@H](O)[C@](C)(O)[C@@H](CC)OC(=O)[C@@H]2C)C[C@@]1(C)OC` [Example E-17], the “MIC flag at the example number (Table E)” value is “E-17* (MIC ≤ 64 μg/mL for at least one BRD strain)”.

For the molecule `CCCNC[C@]1(O)[C@H](C)O[C@@H](O[C@H]2[C@H](C)[C@@H](O[C@@H]3O[C@H](C)C[C@H](NC)[C@H]3Oc3ccc(-n4cccc4)cc3)[C@](C)(O)C[C@@H](C)CN[C@H](C)[C@@H](O)[C@](C)(O)[C@@H](CC)OC(=O)[C@@H]2C)C[C@@]1(C)OC` [Example E-82], the “MIC flag at the example number (Table E)” value was “E-82* (MIC ≤ 64 μg/mL for at least one BRD strain)”.

As for `CCCNC[C@]1(O)[C@H](C)O[C@@H](O[C@H]2[C@H](C)[C@@H](O[C@@H]3O[C@H](C)C[C@H](N(C)C)[C@H]3Oc3cccc(C)c3)[C@](C)(O)C[C@@H](C)CN[C@H](C)[C@@H](O)[C@](C)(O)[C@@H](CC)OC(=O)[C@@H]2C)C[C@@]1(C)OC` [Example E-123], the “MIC flag at the example number (Table E)” value is on record as “E-123* (MIC ≤ 64 μg/mL for at least one BRD strain)”.

`CC[C@H]1OC(=O)[C@H](C)[C@@H](O[C@H]2C[C@@](C)(OC)[C@@H](O)[C@H](C)O2)[C@H](C)[C@@H](O[C@@H]2O[C@H](C)C[C@H](NC)[C@H]2Oc2cc(F)ccc2OC)[C@](C)(O)C[C@@H](C)CN(C)[C@H](C)[C@@H](O)[C@]1(C)O` [Example A-14]: the “MIC flag at the example number (Table A)” value was “A-14* (MIC ≤ 64 μg/mL for at least one BRD strain)”.

As for `CC[C@H]1OC(=O)[C@H](C)[C@@H](O[C@H]2C[C@@](C)(OC)[C@@H](O)[C@H](C)O2)[C@H](C)[C@@H](O[C@@H]2O[C@H](C)C[C@H](NC)[C@H]2Oc2ccc(F)c(S(C)(=O)=O)c2)[C@](C)(O)C[C@@H](C)CN(C)[C@H](C)[C@@H](O)[C@]1(C)O` [Example A-22], the “MIC flag at the example number (Table A)” value was “A-22* (MIC ≤ 64 μg/mL for at least one BRD strain)”.

`CCCNC[C@]1(O)[C@H](C)O[C@@H](O[C@H]2[C@H](C)[C@@H](O[C@@H]3O[C@H](C)C[C@H](NC)[C@H]3Oc3ccccc3OC(F)(F)F)[C@](C)(O)C[C@@H](C)CN[C@H](C)[C@@H](O)[C@](C)(O)[C@@H](CC)OC(=O)[C@@H]2C)C[C@@]1(C)OC` [Example E-5]: the “MIC flag at the example number (Table E)” value is “E-5* (MIC ≤ 64 μg/mL for at least one BRD strain)”.

For the molecule `CCCNC[C@]1(O)[C@H](C)O[C@@H](O[C@H]2[C@H](C)[C@@H](O[C@@H]3O[C@H](C)C[C@H](N(C)C)[C@H]3Oc3ccccc3OCC)[C@](C)(O)C[C@@H](C)CN[C@H](C)[C@@H](O)[C@](C)(O)[C@@H](CC)OC(=O)[C@@H]2C)C[C@@]1(C)OC` [Example E-96], the “MIC flag at the example number (Table E)” value was “E-96* (MIC ≤ 64 μg/mL for at least one BRD strain)”.

For `CC[C@H]1OC(=O)[C@H](C)[C@@H](O[C@H]2C[C@@](C)(OC)[C@@H](O)[C@H](C)O2)[C@H](C)[C@@H](O[C@@H]2O[C@H](C)C[C@H](NC)[C@H]2Oc2cnc(OC)nc2)[C@](C)(O)C[C@@H](C)CN(C)[C@H](C)[C@@H](O)[C@]1(C)O` [Example A-15], the “MIC flag at the example number (Table A)” value is on record as “A-15* (MIC ≤ 64 μg/mL for at least one BRD strain)”.

In the case of `CC[C@H]1OC(=O)[C@H](C)[C@@H](O[C@H]2C[C@@](C)(OC)[C@](O)(CNCCN(C)C)[C@H](C)O2)[C@H](C)[C@@H](O[C@@H]2O[C@H](C)C[C@H](N(C)C)[C@H]2Oc2ccc(OC)cc2)[C@](C)(O)C[C@@H](C)CN[C@H](C)[C@@H](O)[C@]1(C)O` [Example E-107], the “MIC flag at the example number (Table E)” value is reported as “E-107* (MIC ≤ 64 μg/mL for at least one BRD strain)”.

For the molecule `CCCNC[C@]1(O)[C@H](C)O[C@@H](O[C@H]2[C@H](C)[C@@H](O[C@@H]3O[C@H](C)C[C@H](NC)[C@H]3Oc3ccccc3S(C)(=O)=O)[C@](C)(O)C[C@@H](C)CN[C@H](C)[C@@H](O)[C@](C)(O)[C@@H](CC)OC(=O)[C@@H]2C)C[C@@]1(C)OC` [Example E-66], the “MIC flag at the example number (Table E)” value is “E-66* (MIC ≤ 64 μg/mL for at least one BRD strain)”.

As to `CC[C@H]1OC(=O)[C@H](C)[C@@H](O[C@H]2C[C@@](C)(OC)[C@@H](O)[C@H](C)O2)[C@H](C)[C@@H](O[C@@H]2O[C@H](C)C[C@H](NC)[C@H]2Oc2cncc(C(F)(F)F)c2)[C@](C)(O)C[C@@H](C)CN(C)[C@H](C)[C@@H](O)[C@]1(C)O` [Example A-13, (2R,3S,4R,5R,8R,10R,11R,12S,13S,14R)-2-ethyl-3,4,10-trihydroxy-13-(((2R,4R,5S,6S)-5-hydroxy-4-methoxy-4,6-dimethyltetrahydro-2H-pyran-2-yl)oxy)-3,5,6,8,10,12,14-heptamethyl-11-(((2S,3R,4S,6R)-6-methyl-4-(methylamino)-3-((5-(trifluoromethyl)pyridin-3-yl)oxy)tetrahydro-2H-pyran-2-yl)oxy)-1-oxa-6-azacyclopentadecan-15-one], the “MIC flag at the example number (Table A)” value is given as “A-13* (MIC ≤ 64 μg/mL for at least one BRD strain)”.

Regarding `CCCNC[C@]1(O)[C@H](C)O[C@@H](O[C@H]2[C@H](C)[C@@H](O[C@@H]3O[C@H](C)C[C@H](NC)[C@H]3Oc3ccc(Cl)cc3)[C@](C)(O)C[C@@H](C)CN[C@H](C)[C@@H](O)[C@](C)(O)[C@@H](CC)OC(=O)[C@@H]2C)C[C@@]1(C)OC` [Example E-106], the “MIC flag at the example number (Table E)” value is “E-106* (MIC ≤ 64 μg/mL for at least one BRD strain)”.
